# According to ChEMBL document CHEMBL4417631, “Oral peptide inhibitors of interleukin-23 receptor and their use to treat inflammatory bowel diseases” (2017):
# Where a SMILES comes first, the peptide text is derived from it.
# Molecular target: T1, Interleukin-23 receptor (Homo sapiens, UniProt Q5VWK5)
# T1 sequence (Q5VWK5 whole entry): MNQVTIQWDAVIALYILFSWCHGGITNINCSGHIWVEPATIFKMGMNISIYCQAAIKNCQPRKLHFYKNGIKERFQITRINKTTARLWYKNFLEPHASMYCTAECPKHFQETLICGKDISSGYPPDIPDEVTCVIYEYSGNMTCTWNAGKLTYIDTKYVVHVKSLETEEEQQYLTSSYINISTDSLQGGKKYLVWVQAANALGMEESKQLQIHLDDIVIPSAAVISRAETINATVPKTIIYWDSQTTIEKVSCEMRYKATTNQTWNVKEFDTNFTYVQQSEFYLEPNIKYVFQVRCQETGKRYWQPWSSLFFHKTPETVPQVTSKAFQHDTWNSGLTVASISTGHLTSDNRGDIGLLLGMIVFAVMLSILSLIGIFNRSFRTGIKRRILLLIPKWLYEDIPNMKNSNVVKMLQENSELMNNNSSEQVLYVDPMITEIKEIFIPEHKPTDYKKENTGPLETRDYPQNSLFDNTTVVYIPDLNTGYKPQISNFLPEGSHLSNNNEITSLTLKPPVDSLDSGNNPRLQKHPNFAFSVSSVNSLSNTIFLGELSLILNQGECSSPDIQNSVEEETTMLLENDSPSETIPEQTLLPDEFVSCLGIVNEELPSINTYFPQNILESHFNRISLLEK
# Assay: Inhibition of interleukin-23 binding to human interleukin-23 receptor incubated for 2 hrs by competitive binding ELISA
row,Compound,IC50 [µM]
1,CC(=O)N[C@@H](CS)C(=O)N[C@@H](CCC(N)=O)C(=O)N[C@H](C(=O)N[C@@H](Cc1c[nH]c2ccccc12)C(=O)N[C@@H](CCC(N)=O)C(=O)N[C@@H](CS)C(=O)N[C@@](C)(Cc1ccccc1)C(=O)N[C@@H](Cc1c[nH]c2ccccc12)C(=O)N[C@@H](CCC(C)C)C(=O)N[C@@H](CCC(=O)O)C(=O)N[C@@H](CC(N)=O)C(=O)NCC(N)=O)[C@@H](C)O,30
2,CC(=O)N[C@H]1CCSC[C@@H](C(=O)N[C@@H](Cc2ccc(C(N)=O)cc2)C(=O)N[C@@H](Cc2ccc3ccccc3c2)C(=O)NC(C)(C)C(=O)N[C@@H](CCC(=O)O)C(=O)N[C@@H](CC(N)=O)C(=O)NCC(N)=O)NC(=O)[C@H](CCC(N)=O)NC(=O)[C@H](Cc2c[nH]c3ccccc23)NC(=O)[C@H]([C@@H](C)O)NC(=O)[C@H](CCC(N)=O)NC1=O,0.1 to 1
3,CC(C)[C@H](NC(=O)[C@H](Cc1c[nH]c2ccccc12)NC(=O)[C@H](CC(=O)O)NC(=O)[C@H](C)NC(=O)[C@@H](N)CS)C(=O)N[C@@H](CS)C(=O)N[C@@H](Cc1ccc(O)cc1)C(=O)N[C@@H](Cc1c[nH]c2ccccc12)C(=O)N[C@@H](Cc1cnc[nH]1)C(=O)N[C@H](C(N)=O)[C@@H](C)O,> 1
4,CC(=O)N[C@@H](C)C(=O)N[C@H](C(=O)N[C@@H](CC(=O)O)C(=O)N[C@@H](Cc1c[nH]c2ccccc12)C(=O)N[C@H](C(=O)N[C@H](C(=O)N[C@@H](Cc1ccc(O)cc1)C(=O)N[C@@H](Cc1c[nH]c2ccccc12)C(=O)N[C@@H](CCCNC(=N)N)C(=O)N[C@@H](CCCCN)C(=O)N[C@@H](Cc1ccccc1)C(=O)NCC(=O)NCCOCC(=O)N[C@H](CCCCN)C(N)=O)C(C)(C)S)C(C)C)C(C)(C)S,> 30
5,CC(=O)N[C@@H](CS)C(=O)N[C@@H](C)C(=O)N[C@@H](CC(=O)O)C(=O)N[C@@H](Cc1c[nH]c2ccccc12)C(=O)N[C@H](C(=O)N[C@@H](CS)C(=O)N[C@@H](Cc1ccc(O)cc1)C(=O)N[C@@H](Cc1c[nH]c2ccccc12)C(=O)N[C@@H](Cc1cnc[nH]1)C(=O)N[C@H](C(=O)N[C@@H](Cc1ccccc1)C(=O)NCC(=O)NCCC(=O)N[C@H](CCCCN)C(=O)O)[C@@H](C)O)C(C)C,< 0.5
6,CC(C)[C@H](NC(=O)[C@H](Cc1cnc[nH]1)NC(=O)[C@H](Cc1c[nH]c2ccccc12)NC(=O)[C@H](Cc1ccc(O)cc1)NC(=O)[C@H](CS)NC(=O)[C@@H](NC(=O)[C@H](Cc1c[nH]c2ccccc12)NC(=O)[C@H](CC(=O)O)NC(=O)[C@H](CO)NC(=O)[C@@H](N)CS)C(C)C)C(=O)N[C@@H](Cc1ccc(O)cc1)C(=O)NCC(N)=O (H-CSDWVCYWHVYG-NH2),0.5 to 1
7,CC(=O)NC1CCC/C=C\CC(C(=O)N[C@@H](Cc2ccc(O)cc2)C(=O)N[C@@H](Cc2c[nH]c3ccccc23)C(=O)N[C@@H](CCCNC(=N)N)C(=O)N[C@@H](CCCCN)C(=O)N[C@@H](Cc2ccccc2)C(=O)NCC(=O)NCCOCC(=O)N[C@H](CCCCN)C(N)=O)NC(=O)[C@H](CCC(N)=O)NC(=O)[C@H](Cc2c[nH]c3ccccc23)NC(=O)[C@H]([C@@H](C)O)NC(=O)[C@H](CCCNC(=N)N)NC1=O (stereo partly specified),0.1 to 1
8,CC(C)[C@H](NC(=O)[C@H](Cc1cnc[nH]1)NC(=O)[C@H](Cc1c[nH]c2ccccc12)NC(=O)[C@H](Cc1ccc(O)cc1)NC(=O)[C@H](CS)NC(=O)[C@H](CCC(=O)O)NC(=O)[C@H](Cc1c[nH]c2ccccc12)NC(=O)[C@H](CC(N)=O)NC(=O)CNC(=O)[C@@H](N)CS)C(=O)N[C@@H](Cc1ccc(O)cc1)C(=O)NCC(N)=O (H-CGNWECYWHVYG-NH2),> 1
9,CCCCCCCC(=O)N[C@H](C(=O)N[C@@H](CCC(N)=O)C(=O)N[C@H](C(=O)N[C@@H](Cc1c[nH]c2ccccc12)C(=O)N[C@@H](CCC(N)=O)C(=O)N[C@H](C(=O)N[C@@H](Cc1ccc(OC)cc1)C(=O)N[C@@H](Cc1ccc2ccccc2c1)C(=O)N[C@@](C)(CCCCN)C(=O)N[C@@H](CCCCNC(C)=O)C(=O)N[C@@H](CC(N)=O)C(=O)NCC(N)=O)C(C)(C)S)[C@@H](C)O)C(C)(C)S,0.1 to 1
10,CC(=O)N[C@@H](CS)C(=O)N[C@@H](C)C(=O)N[C@@H](CC(=O)O)C(=O)N[C@@H](Cc1c[nH]c2ccccc12)C(=O)N[C@H](C(=O)N[C@@H](CS)C(=O)N[C@@H](Cc1ccc(O)cc1)C(=O)N[C@@H](Cc1cccc2ccccc12)C(=O)N[C@H](C)C(=O)N[C@H](C(=O)N[C@@H](Cc1ccccc1)C(=O)NCC(N)=O)[C@@H](C)O)C(C)C,> 1
11,N=C(N)NCCC[C@H](NC(=O)[C@H](Cc1c[nH]c2ccccc12)NC(=O)[C@H](Cc1ccc(O)cc1)NC(=O)[C@@H]1CSCCC(=O)N[C@@H](CCC(N)=O)C(=O)N[C@@H](CC(=O)O)C(=O)N[C@@H](Cc2c[nH]c3ccccc23)C(=O)N[C@@H](CCC(N)=O)C(=O)N1)C(=O)N[C@@H](CCC(=O)O)C(=O)N[C@@H](CC(N)=O)C(=O)NCC(=O)NCCOCC(=O)N[C@H](CCCCN)C(N)=O,30
12,CC(=O)N[C@@H](CS)C(=O)N[C@@H](C)C(=O)N[C@@H](CC(=O)O)C(=O)N[C@@H](Cc1c[nH]c2ccccc12)C(=O)N[C@H](C(=O)N[C@@H](CS)C(=O)N[C@@H](Cc1ccc(O)cc1)C(=O)N[C@@H](Cc1ccc(C(N)=O)cc1)C(=O)N[C@@H](CCCN)C(=O)N[C@@H](CN)C(=O)N[C@@H](Cc1ccccc1)C(=O)NCC(=O)NCCOCC(=O)N[C@H](CCCCN)C(N)=O)C(C)C,6
13,CC(=O)N[C@@H](CS)C(=O)N[C@@H](CCC(N)=O)C(=O)N[C@H](C(=O)N[C@@H](Cc1c[nH]c2ccccc12)C(=O)N[C@@H](CCC(N)=O)C(=O)N[C@@H](CS)C(N)=O)[C@@H](C)O (Ac-CQTWQC-NH2),> 30
14,CC(=O)N[C@@H](CS)C(=O)N[C@@H](C)C(=O)N[C@@H](CC(=O)O)C(=O)N[C@@H](Cc1c[nH]c2ccccc12)C(=O)N[C@H](C(=O)N[C@@H](CS)C(=O)N[C@@H](Cc1ccc(O)cc1)C(N)=O)C(C)C,> 30
15,CC(=O)N[C@@H](CS)C(=O)N[C@@H](C)C(=O)N[C@@H](CC(=O)O)C(=O)N[C@@H](Cc1c[nH]c2ccccc12)C(=O)N[C@H](C(=O)N[C@@H](CS)C(=O)N[C@@H](Cc1ccc(O)cc1)C(=O)N[C@@H](Cc1ccc(C(F)(F)F)cc1)C(=O)N[C@@H](CCCN)C(=O)N[C@@H](CN)C(=O)N[C@@H](Cc1ccccc1)C(=O)NCC(=O)NCCOCC(=O)N[C@H](CCCCN)C(N)=O)C(C)C,> 1
16,CC(C)[C@H](NC(=O)[C@H](Cc1c[nH]c2ccccc12)NC(=O)[C@H](CC(=O)O)NC(=O)[C@H](C)NC(=O)[C@@H](N)CS)C(=O)N[C@@H](CS)C(=O)N[C@@H](Cc1ccc(O)cc1)C(=O)N[C@@H](C)C(=O)N[C@@H](Cc1cnc[nH]1)C(=O)N[C@H](C(=O)N[C@@H](Cc1ccccc1)C(=O)NCC(N)=O)[C@@H](C)O,> 1
17,CC(=O)N[C@@H](CS)C(=O)N[C@@H](C)C(=O)N[C@@H](CC(=O)O)C(=O)N[C@@H](Cc1c[nH]c2ccccc12)C(=O)N[C@@H](CCCCNC(=O)COCC(=O)NCCCC[C@H](NC(=O)[C@H](Cc1c[nH]c2ccccc12)NC(=O)[C@H](CC(=O)O)NC(=O)[C@H](C)NC(=O)[C@H](CS)NC(C)=O)C(=O)N[C@@H](CS)C(=O)N[C@@H](Cc1ccc(O)cc1)C(=O)N[C@@H](Cc1c[nH]c2ccccc12)C(=O)N[C@@H](Cc1cnc[nH]1)C(=O)N[C@H](C(=O)N[C@@H](Cc1ccccc1)C(=O)NCC(=O)O)[C@@H](C)O)C(=O)N[C@@H](CS)C(=O)N[C@@H](Cc1ccc(O)cc1)C(=O)N[C@@H](Cc1c[nH]c2ccccc12)C(=O)N[C@@H](Cc1cnc[nH]1)C(=O)N[C@H](C(=O)N[C@@H](Cc1ccccc1)C(=O)NCC(=O)O)[C@@H](C)O,> 10
18,CC(=O)N[C@@H](CS)C(=O)N[C@@H](CCC(N)=O)C(=O)N[C@H](C(=O)N[C@@H](Cc1c[nH]c2ccccc12)C(=O)N[C@@H](CCC(N)=O)C(=O)N[C@@H](CS)C(=O)N[C@@H](Cc1ccc(O)cc1)C(=O)N[C@@H](Cc1c[nH]c2ccccc12)C(=O)N[C@@H](CCCNC(=N)N)C(=O)N[C@H](C(=O)N[C@@H](CC(N)=O)C(=O)NCC(=O)NCCOCC(=O)N[C@H](CCCCN)C(N)=O)[C@@H](C)O)[C@@H](C)O,< 0.5
19,CC(=O)N[C@@H](CS)C(=O)N[C@@H](CCC(N)=O)C(=O)N[C@H](C(=O)N[C@@H](Cc1c[nH]c2ccccc12)C(=O)N[C@@H](CCC(N)=O)C(=O)N[C@@H](CS)C(=O)N[C@@H](Cc1ccc(O)cc1)C(=O)N[C@H](CC(=O)N[C@@H](CCCNC(=N)N)C(=O)N[C@H](C(=O)N[C@@H](CC(N)=O)C(=O)NCC(=O)NCCOCC(=O)N[C@H](CCCCN)C(N)=O)C(C)C)Cc1ccc(O)cc1)[C@@H](C)O,> 30
20,CC(=O)N[C@H](CCCCN)C(=O)N[C@@H](CS)C(=O)N[C@@H](CCCNC(=N)N)C(=O)N[C@@H](CC(=O)O)C(=O)N[C@@H](Cc1c[nH]c2ccccc12)C(=O)N[C@@H](CCC(N)=O)C(=O)N[C@@H](CS)C(=O)N[C@@H](Cc1ccc(O)cc1)C(=O)N[C@@H](Cc1cccc2ccccc12)C(=O)N[C@@H](Cc1cnc[nH]1)C(=O)N[C@H](C(=O)N[C@@H](Cc1cnc[nH]1)C(=O)N(C)CC(=O)NCCOCCC(=O)N[C@H](CCCNC(=N)N)C(N)=O)[C@@H](C)O,0.5 to 1
21,CC(=O)N[C@@H](CS)C(=O)N[C@@H](CCCNC(=N)N)C(=O)N[C@H](C(=O)N[C@@H](Cc1c[nH]c2ccccc12)C(=O)N[C@@H](CCC(=O)O)C(=O)N[C@@H](CS)C(=O)N[C@@H](Cc1ccc(O)cc1)C(=O)N[C@@H](Cc1c[nH]c2ccccc12)C(=O)N[C@@H](Cc1cnc[nH]1)C(=O)N[C@@H](CCC(=O)O)C(=O)N[C@@H](Cc1ccc(O)cc1)C(=O)NCC(N)=O)[C@@H](C)O (Ac-CRTWECYWHEYG-NH2),< 0.5
